The text below walks through data of ChEMBL document CHEMBL3351376, “Design, synthesis, and structure-activity relationship of novel opioid κ receptor selective agonists: α-iminoamide derivatives with an azabicyclo[2.2.2]octene skeleton” (Bioorg Med Chem Lett, 2014).

SMILES strings stand for the structures. Some results are limits rather than exact numbers.

In experiment [1] the target is T1, Mu-type opioid receptor (Homo sapiens, UniProt P35372). Nature of the experiment: Agonist activity at human mu opioid receptor expressed in CHO cells by [35S]GTPgammaS binding assay relative to DAMGO. The class given is functional, cell-based.
For experiment [2], the target named is Kappa-type opioid receptor (Cavia porcellus, UniProt P41144). Put plainly: Displacement of [3H]U-69593 from kappa opioid receptor in guinea pig cerebellum.
A short description of experiment [3]: Selectivity ratio of Ki for mu opioid receptor in mouse brain membranes without cerebellum to Ki for kappa opioid receptor in guinea pig cerebellum. The class given is cell membranes.
For experiment [4], the target named is T1, Mu-type opioid receptor. Put plainly: Agonist activity at human mu opioid receptor expressed in CHO cells by [35S]GTPgammaS binding assay. Type of experiment: functional, cell-based.
For experiment [5], the target named is T2, Kappa-type opioid receptor (Homo sapiens, UniProt P41145). Nature of the experiment: Agonist activity at human kappa opioid receptor expressed in CHO cells by [35S]GTPgammaS binding assay relative to U-69593. Type of experiment: functional, cell-based.
For experiment [6], the target named is Mu-type opioid receptor (Mus musculus, UniProt P42866). Put plainly: Displacement of [3H]DAMGO from mu opioid receptor in mouse brain membranes without cerebellum. The class given is cell membranes, Membrane.
In experiment [7] the target is Delta-type opioid receptor (Mus musculus, UniProt P32300). Put plainly: Displacement of [3H]DPDPE from delta opioid receptor in mouse brain membranes without cerebellum. The class given is cell membranes, Membrane.
Experiment [8] deals with T3, Delta-type opioid receptor (Homo sapiens, UniProt P41143). Nature of the experiment: Agonist activity at human delta opioid receptor expressed in CHO cells by [35S]GTPgammaS binding assay relative to SNC80. The class given is functional, cell-based.
For experiment [9], the target named is T2, Kappa-type opioid receptor. Put plainly: Agonist activity at human kappa opioid receptor expressed in CHO cells by [35S]GTPgammaS binding assay. Type of experiment: functional, cell-based.
For experiment [10], the target named is T3, Delta-type opioid receptor. Put plainly: Agonist activity at human delta opioid receptor expressed in CHO cells by [35S]GTPgammaS binding assay. The class given is functional, cell-based.

Chain of Kappa-type opioid receptor (Cavia porcellus, UniProt P41144) (P41144 whole entry): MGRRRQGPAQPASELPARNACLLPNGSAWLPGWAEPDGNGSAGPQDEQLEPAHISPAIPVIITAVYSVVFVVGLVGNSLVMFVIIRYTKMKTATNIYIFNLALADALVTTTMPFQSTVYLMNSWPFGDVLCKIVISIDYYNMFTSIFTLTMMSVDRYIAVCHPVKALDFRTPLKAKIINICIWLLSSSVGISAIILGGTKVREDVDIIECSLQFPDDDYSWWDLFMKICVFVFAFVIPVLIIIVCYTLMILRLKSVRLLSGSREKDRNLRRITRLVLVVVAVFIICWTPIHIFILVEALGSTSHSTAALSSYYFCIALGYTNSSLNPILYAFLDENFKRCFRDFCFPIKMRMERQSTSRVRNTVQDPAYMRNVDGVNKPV
Chain of Mu-type opioid receptor (Mus musculus, UniProt P42866) (P42866 whole entry): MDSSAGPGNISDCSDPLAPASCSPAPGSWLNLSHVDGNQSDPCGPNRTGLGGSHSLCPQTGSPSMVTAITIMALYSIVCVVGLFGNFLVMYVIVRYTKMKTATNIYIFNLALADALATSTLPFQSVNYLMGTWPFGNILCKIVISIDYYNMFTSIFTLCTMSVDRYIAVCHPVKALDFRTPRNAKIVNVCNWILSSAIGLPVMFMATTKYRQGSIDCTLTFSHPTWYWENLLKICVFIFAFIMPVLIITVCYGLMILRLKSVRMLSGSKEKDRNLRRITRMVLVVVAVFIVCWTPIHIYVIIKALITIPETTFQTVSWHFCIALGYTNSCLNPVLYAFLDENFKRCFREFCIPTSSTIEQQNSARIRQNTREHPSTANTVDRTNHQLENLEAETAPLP
T2 sequence (P41145 whole entry): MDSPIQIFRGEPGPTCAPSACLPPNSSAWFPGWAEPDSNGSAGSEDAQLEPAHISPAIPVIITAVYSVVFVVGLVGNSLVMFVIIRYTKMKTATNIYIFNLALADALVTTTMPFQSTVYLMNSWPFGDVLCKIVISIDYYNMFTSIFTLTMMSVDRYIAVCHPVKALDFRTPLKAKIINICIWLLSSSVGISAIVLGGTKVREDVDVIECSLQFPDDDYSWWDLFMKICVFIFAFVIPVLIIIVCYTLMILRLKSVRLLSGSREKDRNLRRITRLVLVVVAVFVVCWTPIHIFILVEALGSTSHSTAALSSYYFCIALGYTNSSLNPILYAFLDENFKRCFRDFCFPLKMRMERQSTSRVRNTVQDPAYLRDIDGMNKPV
T3 sequence (P41143 whole entry): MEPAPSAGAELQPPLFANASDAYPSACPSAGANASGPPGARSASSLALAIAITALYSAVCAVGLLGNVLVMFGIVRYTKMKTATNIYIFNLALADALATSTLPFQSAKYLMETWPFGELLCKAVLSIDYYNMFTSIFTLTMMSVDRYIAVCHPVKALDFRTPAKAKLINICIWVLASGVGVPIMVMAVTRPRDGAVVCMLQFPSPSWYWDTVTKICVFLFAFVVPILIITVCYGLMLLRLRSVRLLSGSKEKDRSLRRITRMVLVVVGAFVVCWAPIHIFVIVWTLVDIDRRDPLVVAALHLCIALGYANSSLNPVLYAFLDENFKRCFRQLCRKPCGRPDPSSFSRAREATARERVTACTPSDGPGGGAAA
Chain of Delta-type opioid receptor (Mus musculus, UniProt P32300) (P32300 whole entry): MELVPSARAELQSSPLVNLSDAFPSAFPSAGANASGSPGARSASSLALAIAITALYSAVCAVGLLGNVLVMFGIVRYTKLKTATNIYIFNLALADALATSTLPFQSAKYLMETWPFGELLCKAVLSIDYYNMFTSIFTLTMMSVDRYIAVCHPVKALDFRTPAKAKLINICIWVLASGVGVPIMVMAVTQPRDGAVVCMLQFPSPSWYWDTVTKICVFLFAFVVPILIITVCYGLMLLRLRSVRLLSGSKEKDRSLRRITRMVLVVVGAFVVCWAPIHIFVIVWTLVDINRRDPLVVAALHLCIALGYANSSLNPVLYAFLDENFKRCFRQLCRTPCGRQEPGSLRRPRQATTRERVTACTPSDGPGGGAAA
T1 sequence (P35372 whole entry): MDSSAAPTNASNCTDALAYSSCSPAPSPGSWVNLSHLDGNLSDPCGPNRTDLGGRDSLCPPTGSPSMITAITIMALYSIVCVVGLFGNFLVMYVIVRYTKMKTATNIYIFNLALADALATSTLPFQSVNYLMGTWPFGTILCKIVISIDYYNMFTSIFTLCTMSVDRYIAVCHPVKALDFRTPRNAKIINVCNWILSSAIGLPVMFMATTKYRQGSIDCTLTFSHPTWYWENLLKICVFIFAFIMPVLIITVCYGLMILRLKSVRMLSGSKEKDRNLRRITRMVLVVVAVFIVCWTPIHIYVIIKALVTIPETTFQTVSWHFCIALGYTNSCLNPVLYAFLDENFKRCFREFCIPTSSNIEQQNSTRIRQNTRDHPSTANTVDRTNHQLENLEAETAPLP

Consider `O=C(NCc1ccccc1)C1=N[C@@]23CC[C@]1(O)C1Oc4c(O)ccc5c4C12CCN(CC1CC1)C3C5` (some centres undefined), for which the maximal response (Emax) at Mu-type opioid receptor [1] was determined as 101%; in experiment [5], 91.2%; in experiment [8], 93.2%. The Ki in experiment [2] turned out to be 0.043 nM; at Mu-type opioid receptor [6] it was 0.14 nM; in experiment [7], 0.61 nM. Moreover, the Ratio Ki in experiment [3] came out at 3.25. The figures for the EC50 (on Mu-type opioid receptor [4]; in experiment [9]; in [10]) were 0.4 nM, 0.033 nM and 1.7 nM, respectively.

In the case of `O=C1C[C@H]2N(CN1Cc1ccccc1)[C@@]13CC[C@]2(O)C2Oc4c(O)ccc5c4C21CCN(CC1CC1)C3C5` (some centres undefined), the Ki was 1.54 nM in [2], 0.43 nM at Mu-type opioid receptor [6] and 4.93 nM in experiment [7]. Moreover, the Ratio Ki in experiment [3] came to 0.28.

`Oc1ccc2c3c1OC1C34CCN(CC3CC3)C(C2)[C@]42CC[C@@]1(O)C=N2` (some centres undefined): the Ki came to 1.42 nM in experiment [2], 0.28 nM on Mu-type opioid receptor [6] and 6.12 nM in experiment [7]. Besides, the Ratio Ki in experiment [3] worked out at 0.2.

In the case of `O=C1C[C@@H]2N(CN1Cc1ccccc1)[C@@]13CC[C@]2(O)C2Oc4c(O)ccc5c4C21CCN(CC1CC1)C3C5` (some centres undefined), the inhibition constant Ki in [2] was found to be 7.74 nM; at Mu-type opioid receptor [6] it was 0.68 nM; in experiment [7], 3.83 nM. Also, in [3], the Ratio Ki is 0.09.

Take `O=C(C[C@H]1N[C@@]23CC[C@]1(O)C1Oc4c(O)ccc5c4C12CCN(CC1CC1)C3C5)NCc1ccccc1` (some centres undefined): the Ki in experiment [2] was determined as 0.037 nM; on Mu-type opioid receptor [6] it was 0.052 nM; in [7], 0.15 nM. The Ratio Ki in experiment [3] is 1.42.

For `O=C(Nc1ccccc1)C1=N[C@@]23CC[C@]1(O)C1Oc4c(O)ccc5c4C12CCN(CC1CC1)C3C5` (some centres undefined), the Ki in [2] turned out to be 0.38 nM; at Mu-type opioid receptor [6], 0.36 nM; in experiment [7], 0.32 nM. In experiment [3], the Ratio Ki is 0.95.

For `O=C(NCCc1ccccc1)C1=N[C@@]23CC[C@]1(O)C1Oc4c(O)ccc5c4C12CCN(CC1CC1)C3C5` (some centres undefined), the Emax stood at 44.9% on Mu-type opioid receptor [1] and 76.3% in experiment [5]. The inhibition constant Ki in [2] turned out to be 0.12 nM; at Mu-type opioid receptor [6], 0.4 nM; in experiment [7] it was 0.86 nM. Moreover, the Ratio Ki in experiment [3] worked out at 3.5. The half-maximal effective concentration (EC50) at Mu-type opioid receptor [4] was 1.09 nM; in experiment [9], 0.18 nM; in [10], more than 1000 nM.

On to `CN(C(=O)/C=C/c1ccoc1)[C@@H]1CC[C@@]2(O)[C@H]3Cc4ccc(O)c5c4[C@@]2(CCN3CC2CC2)[C@H]1O5` [NALFURAFINE], for which the Emax was determined as 70.4% on Mu-type opioid receptor [1] and 55.2% in experiment [8]. The same compound showed an EC50 on Mu-type opioid receptor [4] of 0.72 nM.

For the compound `O=C(C[C@@H]1N[C@@]23CC[C@]1(O)C1Oc4c(O)ccc5c4C12CCN(CC1CC1)C3C5)NCc1ccccc1` (some centres undefined), the Ki in experiment [2] was 0.11 nM; at Mu-type opioid receptor [6], 0.13 nM; in experiment [7], 1.12 nM. Besides, in [3], the Ratio Ki was found to be 1.16.

As to `O=C(NCc1ccccc1)[C@H]1N[C@@]23CC[C@]1(O)C1Oc4c(O)ccc5c4C12CCN(CC1CC1)C3C5` (some centres undefined), the Ki amounted to 0.23 nM in experiment [2], 0.24 nM on Mu-type opioid receptor [6] and 0.81 nM in experiment [7]. In addition, the Ratio Ki in experiment [3] stood at 1.04.

In the case of `O=C(NCc1ccccc1)[C@@H]1N[C@@]23CC[C@]1(O)C1Oc4c(O)ccc5c4C12CCN(CC1CC1)C3C5` (some centres undefined), the Ki in [2] was determined as 0.18 nM; on Mu-type opioid receptor [6], 0.15 nM; in experiment [7], 0.45 nM. Moreover, the Ratio Ki in [3] is 0.83.
